# Measurements as given in patent publication US10245261B2, “Substituted indol-5-ol derivatives and their therapeutic applications” (NantBioScience, Inc., priority 2013, dated 2019).
# Experiments:
# Assay in all cases: KinaseProfiler kinase assay
# Format in all cases: biochemical
# [1] = biological target: Abl(m) (Mus musculus, UniProt P00520)
# Method in brief: (§1)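 Kinase activity is followed by incorporation of 33P from [γ-33P]ATP in 8 mM MOPS pH 7.0 with 10 mM Mg acetate and 0.2 mM EDTA over 40 min at room temperature. Inhibition is scaled between no-kinase and phosphopeptide control wells.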
# [2] = biological target: Axl(h) (Homo sapiens, UniProt P30530)
# Method in brief: as §1
# [3] = biological target: CDK1/cyclinB(h) (Homo sapiens, UniProt P06493)
# Method in brief: as §1
# [4] = biological target: CDK9/cyclin T1(h) (Homo sapiens, UniProt P50750)
# Sequence of CDK9/cyclin T1(h) (P50750 whole entry): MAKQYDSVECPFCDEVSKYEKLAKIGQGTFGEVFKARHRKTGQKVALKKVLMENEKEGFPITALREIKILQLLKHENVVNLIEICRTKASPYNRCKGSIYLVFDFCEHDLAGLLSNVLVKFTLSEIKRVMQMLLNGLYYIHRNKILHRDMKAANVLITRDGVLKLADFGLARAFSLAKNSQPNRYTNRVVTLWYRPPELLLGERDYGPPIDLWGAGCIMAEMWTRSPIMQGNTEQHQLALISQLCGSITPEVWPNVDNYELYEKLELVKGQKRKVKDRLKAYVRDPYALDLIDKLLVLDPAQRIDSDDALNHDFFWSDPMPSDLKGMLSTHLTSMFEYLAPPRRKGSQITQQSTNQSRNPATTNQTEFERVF
# Sequence of CDK9/cyclin T1(h) (O60563 whole entry partner): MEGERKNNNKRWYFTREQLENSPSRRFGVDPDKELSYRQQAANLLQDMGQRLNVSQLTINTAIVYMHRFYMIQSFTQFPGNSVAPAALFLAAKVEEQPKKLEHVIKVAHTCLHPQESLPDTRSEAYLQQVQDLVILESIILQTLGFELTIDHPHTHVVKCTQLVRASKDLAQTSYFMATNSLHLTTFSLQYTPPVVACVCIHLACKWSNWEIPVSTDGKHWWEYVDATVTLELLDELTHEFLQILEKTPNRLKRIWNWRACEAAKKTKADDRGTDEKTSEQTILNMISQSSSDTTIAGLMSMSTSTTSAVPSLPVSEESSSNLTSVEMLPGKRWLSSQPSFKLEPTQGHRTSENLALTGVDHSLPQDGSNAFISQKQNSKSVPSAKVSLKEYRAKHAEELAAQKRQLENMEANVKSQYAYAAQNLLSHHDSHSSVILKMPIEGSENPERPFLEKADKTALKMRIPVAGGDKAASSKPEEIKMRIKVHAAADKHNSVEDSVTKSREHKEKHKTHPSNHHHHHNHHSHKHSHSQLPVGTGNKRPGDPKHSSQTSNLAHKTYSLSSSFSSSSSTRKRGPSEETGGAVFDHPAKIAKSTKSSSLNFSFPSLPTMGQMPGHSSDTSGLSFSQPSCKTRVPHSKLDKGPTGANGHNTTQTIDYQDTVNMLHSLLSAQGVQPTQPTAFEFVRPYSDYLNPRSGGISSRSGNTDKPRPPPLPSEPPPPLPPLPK
# Method in brief: as §1
# [5] = biological target: CHK2(h) (Homo sapiens, UniProt O96017)
# Method in brief: as §1
# [6] = biological target: CaMKI(h) (Homo sapiens, UniProt Q14012)
# Method in brief: as §1
# [7] = biological target: CaMKIIγ(h) (Homo sapiens, UniProt Q13555)
# Method in brief: as §1
# [8] = biological target: DDR2(h) (Homo sapiens, UniProt Q16832)
# Sequence of DDR2(h) (Q16832 22-855): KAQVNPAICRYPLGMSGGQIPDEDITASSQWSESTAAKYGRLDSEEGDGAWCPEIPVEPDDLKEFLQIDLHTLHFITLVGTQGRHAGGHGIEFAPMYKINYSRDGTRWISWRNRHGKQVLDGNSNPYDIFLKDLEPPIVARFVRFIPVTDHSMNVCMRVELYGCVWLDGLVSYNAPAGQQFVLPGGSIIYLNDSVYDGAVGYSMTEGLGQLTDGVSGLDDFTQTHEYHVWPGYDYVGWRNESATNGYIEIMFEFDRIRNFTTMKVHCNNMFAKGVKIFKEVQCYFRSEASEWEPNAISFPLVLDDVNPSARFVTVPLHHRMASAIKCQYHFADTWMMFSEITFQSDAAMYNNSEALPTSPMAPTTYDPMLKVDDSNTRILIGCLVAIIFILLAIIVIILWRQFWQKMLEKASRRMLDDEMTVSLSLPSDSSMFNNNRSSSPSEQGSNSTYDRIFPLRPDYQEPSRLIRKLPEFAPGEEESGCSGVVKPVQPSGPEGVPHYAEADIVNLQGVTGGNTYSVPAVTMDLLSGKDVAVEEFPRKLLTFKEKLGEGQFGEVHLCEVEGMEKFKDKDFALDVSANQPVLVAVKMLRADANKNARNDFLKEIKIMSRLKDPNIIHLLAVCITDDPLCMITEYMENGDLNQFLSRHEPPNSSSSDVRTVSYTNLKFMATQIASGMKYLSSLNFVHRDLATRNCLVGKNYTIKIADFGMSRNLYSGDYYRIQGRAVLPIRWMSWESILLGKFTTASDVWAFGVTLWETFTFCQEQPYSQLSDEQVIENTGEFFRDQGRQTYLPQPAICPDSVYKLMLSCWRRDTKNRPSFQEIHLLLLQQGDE
# Method in brief: as §1
# [9] = biological target: EphB2(h) (Homo sapiens, UniProt P29323)
# Method in brief: as §1
# [10] = biological target: IKKα(h) (Homo sapiens, UniProt O15111)
# Sequence of IKKα(h) (O15111 whole entry): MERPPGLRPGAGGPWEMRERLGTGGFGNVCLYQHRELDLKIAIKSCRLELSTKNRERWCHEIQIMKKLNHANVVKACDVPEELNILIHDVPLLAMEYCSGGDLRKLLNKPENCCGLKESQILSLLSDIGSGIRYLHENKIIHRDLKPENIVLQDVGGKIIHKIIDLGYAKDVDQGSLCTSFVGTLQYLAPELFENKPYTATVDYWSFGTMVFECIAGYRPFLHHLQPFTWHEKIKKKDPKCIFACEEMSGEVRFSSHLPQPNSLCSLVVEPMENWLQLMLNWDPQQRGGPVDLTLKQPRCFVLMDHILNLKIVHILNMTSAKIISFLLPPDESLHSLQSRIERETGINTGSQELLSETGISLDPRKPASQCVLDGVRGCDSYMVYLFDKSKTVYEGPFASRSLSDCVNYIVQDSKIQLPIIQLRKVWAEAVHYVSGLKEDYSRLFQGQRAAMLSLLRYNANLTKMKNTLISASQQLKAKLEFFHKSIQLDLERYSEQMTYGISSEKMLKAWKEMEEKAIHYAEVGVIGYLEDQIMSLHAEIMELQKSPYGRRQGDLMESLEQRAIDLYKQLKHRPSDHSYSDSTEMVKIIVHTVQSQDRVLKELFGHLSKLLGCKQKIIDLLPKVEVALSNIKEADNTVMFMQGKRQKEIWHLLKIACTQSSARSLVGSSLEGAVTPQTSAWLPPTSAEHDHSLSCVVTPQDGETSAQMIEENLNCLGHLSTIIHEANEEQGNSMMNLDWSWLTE
# Method in brief: as §1
# [11] = biological target: IR(h) (Homo sapiens, UniProt P06213)
# Method in brief: as §1
# [12] = biological target: Itk(h) (Homo sapiens, UniProt Q08881)
# Method in brief: as §1
# [13] = biological target: MKK7β(h) (Homo sapiens, UniProt O14733)
# Method in brief: as §1
# [14] = biological target: NEK7(h) (Homo sapiens, UniProt Q8TDX7)
# Method in brief: as §1
# [15] = biological target: PAK6(h) (Homo sapiens, UniProt Q9NQU5)
# Method in brief: as §1
# [16] = biological target: PDGFRα(V561D)(h) (Homo sapiens, UniProt P16234, V561D)
# Method in brief: as §1
# [17] = biological target: PDGFRα(h) (Homo sapiens, UniProt P16234)
# Method in brief: as §1
# [18] = biological target: PDK1(h) (Homo sapiens, UniProt O15530)
# Method in brief: as §1
# [19] = biological target: PI3 Kinase (p110δ/p85α)(h) (Homo sapiens, UniProt O00329)
# Method in brief: as §1
# [20] = biological target: PI3 Kinase (p110δ/p85α)(m) (Mus musculus, UniProt O35904)
# Method in brief: as §1
# [21] = biological target: PI3 Kinase (p113α)(H1047R)/p85α)(m) (Mus musculus, UniProt P42337, H1047R)
# Method in brief: as §1
# [22] = biological target: PKCα(h) (Homo sapiens, UniProt P17252)
# Method in brief: as §1
# [23] = biological target: PKCβII(h) (Homo sapiens, UniProt P05771)
# Method in brief: as §1
# [24] = biological target: ROCK-I(h) (Homo sapiens, UniProt Q13464)
# Method in brief: as §1
# [25] = biological target: SGK2(h) (Homo sapiens, UniProt Q9HBY8)
# Method in brief: as §1
# [26] = biological target: SIK(h) (Homo sapiens, UniProt P57059)
# Method in brief: as §1
# [27] = biological target: T1, Src(1-530)(h) (Homo sapiens, UniProt P12931)
# T1 construct: Src(1-530)(h)
# Method in brief: as §1
# [28] = biological target: Src(T341M)(h) (Homo sapiens, UniProt P12931, T341M)
# Method in brief: as §1
# [29] = biological target: TSSK2(h) (Homo sapiens, UniProt Q96PF2)
# Method in brief: as §1
# [30] = biological target: Txk(h) (Homo sapiens, UniProt P42681)
# Method in brief: as §1
# [31] = biological target: WNK2(h) (Homo sapiens, UniProt Q9Y3S1)
# Sequence of WNK2(h) (Q9Y3S1 whole entry): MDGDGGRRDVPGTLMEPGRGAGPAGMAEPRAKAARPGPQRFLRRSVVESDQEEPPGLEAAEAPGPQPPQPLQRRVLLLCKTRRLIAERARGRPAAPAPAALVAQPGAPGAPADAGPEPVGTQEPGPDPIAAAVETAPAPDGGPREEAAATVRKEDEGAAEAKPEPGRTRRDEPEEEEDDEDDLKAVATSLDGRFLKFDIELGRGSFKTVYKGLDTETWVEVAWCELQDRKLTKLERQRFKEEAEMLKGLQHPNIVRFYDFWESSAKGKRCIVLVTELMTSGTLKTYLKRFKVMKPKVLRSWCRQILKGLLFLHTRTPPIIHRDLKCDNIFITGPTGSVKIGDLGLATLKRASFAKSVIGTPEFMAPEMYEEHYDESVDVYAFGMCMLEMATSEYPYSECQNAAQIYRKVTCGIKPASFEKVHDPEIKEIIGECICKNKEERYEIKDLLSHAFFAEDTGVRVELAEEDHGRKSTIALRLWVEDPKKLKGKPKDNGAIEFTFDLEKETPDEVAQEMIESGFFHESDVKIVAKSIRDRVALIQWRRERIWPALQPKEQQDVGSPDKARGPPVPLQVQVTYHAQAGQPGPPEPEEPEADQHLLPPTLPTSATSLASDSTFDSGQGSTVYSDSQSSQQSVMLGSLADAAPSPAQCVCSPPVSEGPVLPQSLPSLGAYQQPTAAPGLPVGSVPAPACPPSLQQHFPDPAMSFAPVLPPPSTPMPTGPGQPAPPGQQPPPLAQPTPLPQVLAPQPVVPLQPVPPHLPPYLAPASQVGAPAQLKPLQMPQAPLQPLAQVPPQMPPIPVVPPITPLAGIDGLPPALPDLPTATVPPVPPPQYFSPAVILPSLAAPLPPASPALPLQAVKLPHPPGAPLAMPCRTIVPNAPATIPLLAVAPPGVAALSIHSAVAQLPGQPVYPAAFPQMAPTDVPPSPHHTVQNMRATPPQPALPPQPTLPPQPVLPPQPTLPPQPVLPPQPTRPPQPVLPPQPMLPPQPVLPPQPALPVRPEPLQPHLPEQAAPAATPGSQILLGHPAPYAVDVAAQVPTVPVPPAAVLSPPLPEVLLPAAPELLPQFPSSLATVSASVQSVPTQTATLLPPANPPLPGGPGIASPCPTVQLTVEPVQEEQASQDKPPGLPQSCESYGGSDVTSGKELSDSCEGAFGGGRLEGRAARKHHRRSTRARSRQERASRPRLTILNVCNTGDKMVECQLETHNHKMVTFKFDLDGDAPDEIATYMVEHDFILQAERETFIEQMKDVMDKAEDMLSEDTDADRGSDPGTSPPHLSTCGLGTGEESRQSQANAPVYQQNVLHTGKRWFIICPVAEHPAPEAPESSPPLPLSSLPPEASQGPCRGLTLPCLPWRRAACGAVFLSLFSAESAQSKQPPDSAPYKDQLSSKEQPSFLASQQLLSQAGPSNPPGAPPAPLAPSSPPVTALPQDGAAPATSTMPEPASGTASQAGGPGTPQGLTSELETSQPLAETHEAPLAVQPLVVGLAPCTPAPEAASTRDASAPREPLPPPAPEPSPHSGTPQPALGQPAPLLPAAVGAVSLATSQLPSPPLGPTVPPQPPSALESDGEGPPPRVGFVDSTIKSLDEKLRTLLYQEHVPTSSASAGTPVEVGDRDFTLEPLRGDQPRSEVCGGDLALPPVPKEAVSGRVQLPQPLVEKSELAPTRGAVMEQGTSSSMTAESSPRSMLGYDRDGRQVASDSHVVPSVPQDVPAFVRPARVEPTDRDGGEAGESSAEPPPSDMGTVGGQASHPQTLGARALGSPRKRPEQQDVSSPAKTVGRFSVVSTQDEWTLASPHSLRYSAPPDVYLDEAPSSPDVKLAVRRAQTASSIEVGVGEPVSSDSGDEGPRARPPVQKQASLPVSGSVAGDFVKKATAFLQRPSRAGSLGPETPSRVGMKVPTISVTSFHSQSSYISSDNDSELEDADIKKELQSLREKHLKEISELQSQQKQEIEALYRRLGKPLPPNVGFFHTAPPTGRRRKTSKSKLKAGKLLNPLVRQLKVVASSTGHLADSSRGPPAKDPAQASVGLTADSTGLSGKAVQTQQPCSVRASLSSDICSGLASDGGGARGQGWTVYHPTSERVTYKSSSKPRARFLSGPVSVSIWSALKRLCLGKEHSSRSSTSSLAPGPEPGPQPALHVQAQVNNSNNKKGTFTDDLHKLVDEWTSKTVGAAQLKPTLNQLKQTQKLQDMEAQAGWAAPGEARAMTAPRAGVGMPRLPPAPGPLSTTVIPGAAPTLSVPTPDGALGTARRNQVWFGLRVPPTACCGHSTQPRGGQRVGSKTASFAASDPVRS
# Method in brief: as §1
SMILES,inhibition at 0.1 µM [1],inhibition at 0.1 µM [2],inhibition at 0.1 µM [3],inhibition at 0.1 µM [4],inhibition at 0.1 µM [5],inhibition at 0.1 µM [6],inhibition at 0.1 µM [7],inhibition at 0.1 µM [8],inhibition at 0.1 µM [9],inhibition at 0.1 µM [10],inhibition at 0.1 µM [11],inhibition at 0.1 µM [12],inhibition at 0.1 µM [13],inhibition at 0.1 µM [14],inhibition at 0.1 µM [15],inhibition at 0.1 µM [16],inhibition at 0.1 µM [17],inhibition at 0.1 µM [18],inhibition at 0.1 µM [19],inhibition at 0.1 µM [20],further results
Cc1cc2c(F)c(Oc3nc(Nc4cc(C5CC5)[nH]n4)cc(N4CCN(C)CC4)n3)ccc2[nH]1 [Compound 10],101%,70%,10%,22%,11%,2%,-8%,80%,47%,-12%,83%,31%,-26%,8%,0%,86%,-3%,13%,2%,-19%,inhibition at 0.1 µM [21]: -1%; inhibition at 0.1 µM [22]: 4%; inhibition at 0.1 µM [23]: 3%; inhibition at 0.1 µM [24]: -15%; inhibition at 0.1 µM [25]: -41%; inhibition at 0.1 µM [26]: 50%; inhibition at 0.1 µM [27]: 101%; inhibition at 0.1 µM [28]: 102%; inhibition at 0.1 µM [29]: 5%; inhibition at 0.1 µM [30]: 75%; inhibition at 0.1 µM [31]: -8%
"Cc1cc2c(F)c(Oc3nc(Nc4cc(C5CC5)[nH]n4)cc(N4CCNCC4)n3)ccc2[nH]1 [Compound 11, N-(5-cyclopropyl-1H-pyrazol-3-yl)-2-((4-fluoro-2-methyl-1H-indol-5-yl)oxy)-6-(piperazin-1-yl)pyrimidin-4-amine]",104%,62%,-1%,32%,4%,7%,22%,83%,76%,-3%,84%,54%,-16%,-5%,35%,72%,29%,3%,-1%,6%,inhibition at 0.1 µM [21]: 0%; inhibition at 0.1 µM [22]: -3%; inhibition at 0.1 µM [23]: -3%; inhibition at 0.1 µM [24]: -15%; inhibition at 0.1 µM [25]: -12%; inhibition at 0.1 µM [26]: 56%; inhibition at 0.1 µM [27]: 101%; inhibition at 0.1 µM [28]: 101%; inhibition at 0.1 µM [29]: 2%; inhibition at 0.1 µM [30]: 87%; inhibition at 0.1 µM [31]: -6%
